{"source": "patent US7563774B2", "about": "“Combination of FBPase inhibitors and antidiabetic agents useful for the treatment of diabetes” (Metabasis Therapeutics, Inc., priority 2000, dated 2009)", "key": {"[1]": {"system": "Goto-Kakizaki (GK) rats", "test": "Acute combination treatment of insulin and an FBPase inhibitor in the Goto-Kakizaki rat (Example CC)", "format": "in vivo", "protocol": "Male Goto-Kakizaki (GK) rats were purchased at 9 weeks of age from Charles River Japan, Inc. (Tokyo, Japan). The rats were maintained under standard vivarium conditions (24-26° C., 12-hour light cycle, 12-hour dark cycle) and received standard chow and water ad libitum. At 48 weeks of age, animals were divided into 4 groups (n=6/group) after an overnight fast. The treatment groups were control, Compound J, insulin, and combination of Compound J and insulin. […] Insulin (human recombinant insulin, Penfill N300, Novo Nordisk, Denmark) was subcutaneously injected at the dose of 1.5 U/kg. Blood glucose levels in tail vein samples were measured by means of a Glucoloader-F, an automatic glucose analyzer, (A&T Co., Ltd., Tokyo, Japan)."}, "[2]": {"system": "Db/db or ob/ob mice", "test": "Acute combination treatment of a glucose-6-phosphatase inhibitor and an FBPase inhibitor in db/db or ob/ob mice (Example GG)", "format": "in vivo, mouse", "conditions": "0.5 to 300 mg/kg p.o.", "protocol": "Db/db or ob/ob mice are purchased at 5 weeks of age from Jackson Laboratories (Bar Harbor, Me.). The mice are maintained under standard vivarium conditions (24-26° C., 12-hour light cycle, 12-hour dark cycle) and receive standard chow and water ad libitum. At more than 10 weeks of age, animals are divided into 4 groups (n=5 to 7/group). […] Food is either withheld or made available after treatment. Blood glucose levels in tail vein samples are measured by means of standard manual or automated methods."}, "[3]": {"system": "streptozotocin diabetic Sprague Dawley rats", "test": "Acute combination treatment of an FBPase inhibitor and an amylin agonist in streptozotocin diabetic rats (Example HH)", "format": "in vivo, rat", "conditions": "pramlintide 10 micrograms i.v., Compound J 300 mg/kg p.o.", "protocol": "Animals are then gavaged with 1 mL 50% glucose, and allowed ad libitum access to food. Blood glucose is collected from the tail vein at 0, 30, 60, 120, 180, and 240 minutes following glucose administration."}}}
{"molecule": "CCOC(=O)[C@H](C)NP(=O)(N[C@@H](C)C(=O)OCC)c1ccc(-c2nc(N)sc2CC(C)C)o1", "note": "[Compound J, 2-Amino-5-isobutyl-4-{2-[5-(N,N′-bis((S)-1-ethoxycarbonyl)ethyl)phosphonamido]furanyl}thiazole]", "values": [{"measurement": "plasma glucose lowering", "setting": "[1]; GK rats, acute", "result": "progressively decreased plasma glucose"}, {"measurement": "Plasma Glucose, % of before", "setting": "[1]; after 2 hour", "result": "(65.6 +/− 6.6) %"}, {"measurement": "Plasma Glucose", "setting": "[1]; after 2 hour, Compound J 50 mg/kg p.o., insulin 1.5 U/kg s.c.", "result": "106.3 ± 11.0", "unit": "mg/dL"}, {"measurement": "Plasma Glucose", "setting": "[1]; after 4 hours", "result": "79.6 ± 4.9", "unit": "mg/dL"}, {"measurement": "Plasma Glucose, % of before", "setting": "[1]; after 4 hours", "result": "(51.0 +/− 2.7) %"}, {"measurement": "Plasma Glucose", "setting": "[1]; after 6 hours", "result": "35.4 ± 10.8", "unit": "mg/dL"}, {"measurement": "Plasma Glucose, % of before", "setting": "[1]; after 6 hours", "result": "(22.6 +/− 6.7) %"}, {"measurement": "Plasma Glucose", "setting": "[1]; before (0 hour)", "result": "161.8 ± 6.6", "unit": "mg/dL"}, {"measurement": "Plasma Glucose, % of before", "setting": "[1]; before (0 hour)", "result": "(100.0 +/− 0.0) %"}, {"measurement": "blood glucose lowering", "setting": "[2]", "result": "significantly lower blood glucose relative to control values"}, {"measurement": "postprandial glucose excursion", "setting": "[3]", "result": "attenuated the postprandial glucose excursion"}]}
